One assay deals with infant fecal bacteria. As to the kind of experiment: In vitro substrate fermentation model with infant feces (pH, SCFA, lactate). Format: cell-based, human infant.
The test system of the next assay is Bifidobacterium spp. As to the kind of experiment: qPCR of bacterial populations in in vitro fecal fermentation. Format: cell-based. Particulars: overall, 0-12 h fermentation. In general terms: In qPCR the cycle at which signal appears reflects the starting amount.
The subject of another assay is B. breve ATCC 15700. As to the kind of experiment: Bacterial growth assay (OD600). In kind it is cell-based, Bifidobacterium breve. Particulars: 1% carbohydrate in sMRS+cysteine. The protocol:
Coy Laboratory Products, Grass Lake, Mich.). Subsequently, the cultures are passed twice on a semi-synthetic MRS medium ([…] which is supplemented with 1% (w/v) filter-sterilized glucose as the sole carbohydrate source. […] For bifidobacteria strains, the same procedure is followed except all media are supplemented with 0.5 g/l L-cysteine/HCl. […] After the 2nd pass in sMRS+glucose+cysteine, the cultures are washed once with 10 mL of sterile sMRS+cysteine (no carbohydrate), resuspended in 10 ml of sterile sMRS+cysteine (no carbohydrate) and then used as a 1% inoculum. The carbohydrates are sterilized with a 0.22 micron filter and used at a 1% final concentration. Cell growth is performed in 250 μL of sMRS+cysteine covered with 50 μL of mineral oil in a Bioscreen 100-well Honeycomb plate. […] The plate reader is operated in discontinuous mode, with absorbance readings performed in 30-minute intervals, and preceded by 30-second shaking intervals at maximum speed. Controls consist of inoculated medium lacking carbohydrate. […] Maximum OD is determined by inspection of the corrected growth data. OD is determined by subtracting the initial corrected OD (time point 0) from the maximum corrected OD. Samples are grown in biologically independent triplicates and the resulting growth kinetic data are expressed as the mean of these replicates. […]

A further assay relates to HT-29 cells. As to the kind of experiment: Alkaline phosphatase activity per milligram of protein (cell differentiation), HT-29. Format: cell-based, human. As to conditions: Example 48: LNnT or 2′FL 20, 200, 2000 mg/L; 6′SL 40, 400; 72 hours. The protocol: In a first experiment, HT-29 cells, which model the immature epithelial cells of the small intestine, are incubated in a humidified atmosphere of 5% carbon dioxide at 37° C. in the presence of LNnT or 2′FL at concentrations of 0 mg/L (“0”), 20 mg/L (“20”), 200 mg/L (“200”), and 2000 mg/L (“2000”) or in the presence of 6′SL at concentrations of 0 mg/mL (“0”), 40 mg/mL (“40”), 400 mg/mL (“400”), and 4000 mg/mL (“4000”) for 72 hours. The culture medium utilized is Dulbecco's Modified Eagle Medium (Life Technologies, Foster City Calif.) supplemented with 10% fetal calf serum and 2 mM glutamine. The controls (“energy”) consist of 91.5 mg lactose and 64.2 mg N-acetyllactosamine/L for LNnT; 133 mg lactose and 67 mg fucose/L for 2′FL; and 195 mg lactose and 205 mg/L sialic acid for 6′SL. The impact of the LNnT, 2′FL, and 6′SL at various levels and the controls on HT-29 cell proliferation is measured using a conventional BrdU assay, which measures the number of cells that have recently synthesized DNA. […] Additionally, the impact of LNnT, 2′FL, and 6′SL at various levels and the controls on the alkaline phosphatase activity per milligram of protein for HT-29 cells, which is an indicator of cell differentiation, is measured.

“Also recorded” adds a separate entry of the source.

As for `CC(=O)N[C@H]1[C@H](O[C@H]2[C@@H](O)[C@@H](CO)O[C@@H](O[C@H]3[C@H](O)[C@@H](O)C(O)O[C@@H]3CO)[C@@H]2O)O[C@H](CO)[C@@H](O[C@@H]2O[C@H](CO)[C@H](O)[C@H](O)[C@H]2O)[C@@H]1O` (mixture of isomers) [LNnT, Lacto-N-neotetraose], the fermentation rate entry in the assay on infant fecal bacteria is given as “about 4,488 μg/g of dry matter/hour”. Also, the acetate production entry in the assay with infant fecal bacteria (3 and 6 h) is given as “produce similar amounts of acetate”. Also, in the assay on infant fecal bacteria (6 h), the acetate production result is listed as “less acetate than GOS”. In the assay with infant fecal bacteria (12 h), the “acetate production, formula fed versus breast fed infants” value is “greater” and the lactate production entry is on record as “greater (P<0.0001) compared to gum Arabic”. For the same compound, in the assay with infant fecal bacteria (after 3, 6 and 12 h of fermentation), the “total SCFA production, formula fed versus breast fed infants” value was “greater (P=0.01) fermentation by formula fed infants”. Further, the “pH change from baseline” value in the assay on infant fecal bacteria (at 3, 6 and 12 h after inoculation) was “greatest”. In the assay with infant fecal bacteria (overall), the “fermentability by infant fecal bacteria” value is on record as “highly fermentable; also recorded: readily fermented”, the propionate production result is given as “greater (P<0.0001) propionate production than gum Arabic” and the “relative rate of fermentation” value is given as “fermented more rapidly than 6′SL; also recorded: fermentation rates similar to GOS”. In addition, in the assay on infant fecal bacteria (time not stated (between the 3 h and 12 h statements)), the lactate production entry is given as “greater (P<0.0001)”. In the assay on infant fecal bacteria (up to 12 h), the lactate accumulation result is on record as “significant amounts of lactate”. The bifidobacteria populations entry in the assay on Bifidobacterium spp. is “may also be bifidogenic; also recorded: tended to generally increase bifidobacteria levels”. In the assay with B. breve ATCC 15700, the “growth / ability to ferment (OD600)” value is on record as “grow well”. Further, the “alkaline phosphatase activity per milligram of protein (cell differentiation)” value with HT-29 cells is “trend toward an increase”.

For the origin of these results see US11337990B2, “Human milk oligosaccharides to promote growth of beneficial bacteria” (ABBOTT LABORATORIES, priority 2010, dated 2022).
